Key:
[1] = Spreading of 10 μL droplet on polystyrene Petri dishes; assay type: physicochemical; conditions: 30 seconds
Procedure: Spreading was determined by applying a 10 μL droplet, of surfactant solution to polystyrene Petri dishes (Fisher Scientific) and measuring the spread diameter (mm) after 30 seconds, at a relative humidity between 50 and 70% (at 22 to 25° C.). The solution was applied with an automatic pipette to provide droplets of reproducible volume. Deionized water that was further purified with a Millipore filtration system was used to prepare the surfactant solutions.

[2] = Surface tension, Kruss surface tensiometer; assay type: physicochemical; conditions: 0.1 wt % in 0.005M NaCl water
Procedure: Surface tension was measured using a Kruss surface tensiometer, with a sand blasted platinum blade as the sensor. Solutions of the various components were prepared at 0.1 wt % in 0.005M NaCl water (deionized), as an equilibrium aid.

| Molecule | Spread Diameter (mm) ([1]; 0.05% weight surfactant) | Spread Diameter (mm) ([1]; 0.1% weight surfactant) | Spread Diameter (mm) ([1]; 0.3% weight surfactant) | Spread Diameter (mm) ([1]; 0.5% weight surfactant) | Surface Tension [2] |
| --- | --- | --- | --- | --- | --- |
| C[Si](C)(C)C[Si](C)(C)CCCOCCOCCOCCOCCO [Product 6] | 40 mm | 45 mm | 53 mm | 47 mm | 22.5 mN/m |
| C[Si](C)(C)CC[Si](C)(C)CCCOCCOCCOCCOCCO [Product 7] | 30 mm | 42 mm | 48 mm | 49 mm | 22.7 mN/m |
| C[Si](C)(C)C[Si](C)(C)CCCOCCOCCOCCOCCOCCOCCOCCOCCOCCOCCOCCO [Product 8] |  | 7 mm |  | 7 mm | 27.7 mN/m |
| C[Si](C)(C)CC[Si](C)(C)CCCOCCOCCOCCOCCOCCOCCOCCOCCOCCOCCOCCO [Product 9] |  | 7 mm |  | 7 mm | 26.7 mN/m |
| Octylphenolethoxylate, containing 10 polyoxyethylene units [OPE, reference compound] |  | 9 mm |  | 10 mm | 31.8 mN/m |
